Reference: US20210395650A1, “COMPOUNDS STABILIZING HYDROLASES IN LIQUIDS” (BASF SE, priority 2018, published 2021)
Where a name gives a salt, the structure may show the parent alone.

Biological target: T1, Savinase® 16.0L (Lederbergia lenta, UniProt P29600)
T1 construct: purchased Sigma-Aldrich
T1 sequence (P29600 1-269): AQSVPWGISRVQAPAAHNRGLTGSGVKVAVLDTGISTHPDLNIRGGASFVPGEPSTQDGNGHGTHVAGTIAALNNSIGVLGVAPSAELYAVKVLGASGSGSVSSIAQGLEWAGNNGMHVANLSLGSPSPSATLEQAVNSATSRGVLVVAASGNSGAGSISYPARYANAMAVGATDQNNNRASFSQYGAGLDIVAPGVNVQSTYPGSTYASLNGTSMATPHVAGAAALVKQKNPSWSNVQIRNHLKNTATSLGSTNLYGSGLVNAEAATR
Assay: Protease storage stability in liquid formulations at 37° C. (Suc-AAPF-pNA assay)
Format: biochemical
Conditions: 0.7 wt% Savinase 16.0 L
Description: The storage stability of protease was assessed at 37° C.
Base test formulations were manufactured by making base formulations I to V by mixing the components according to Table 1.
Protease used: Savinase® 16.0L (CAS-No. 9014-01-1, EC-No. 232-752-2) was purchased from Sigma-Aldrich.
The respective component (a) or comparative compound was added, if applicable, to the respective base formulation in amounts as indicated in Table 1.
The amount of protease as provided in Table 1 refers to active protein.
Water was added to accomplish the balance to 100.
Savinase activity at certain points in time as indicated in Table 2 was be determined by employing Succinyl-Ala-Ala-Pro-Phe-p-nitroanilide (Suc-AAPF-pNA, short AAPF) as substrate. pNA is cleaved from the substrate molecule by proteolytic cleavage, resulting in release of yellow color of free pNA which was determined by measuring OD405. Measurements were done at 20° C.
The proteolytic activity values provided in Table 3 were calculated referring to the 100% value determined in the reference formulation at the time 0.
The nomenclature of formulations is as follows: the Roman number before the full stop characterizes the base formulation, the Arabian number the type of compound (A. # compound according to invention (component (a)); (B. #) comparative compound).

[1] = base formulation I, 2.5 wt% compound, 3 d
[2] = base formulation I, 2.5 wt% compound, 7 d
[3] = base formulation I, 2.5 wt% compound, 14 d
[4] = base formulation I, 2.5 wt% compound, 21 d
[5] = base formulation I, 2.5 wt% compound, 28 d
[6] = base formulation I, 2.5 wt% compound, 35 d
[7] = base formulation III, 2.0 wt% compound, 3 d
[8] = base formulation III, 2.0 wt% compound, 7 d
[9] = base formulation III, 2.0 wt% compound, 14 d
[10] = base formulation III, 2.0 wt% compound, 21 d
[11] = base formulation III, 2.0 wt% compound, 28 d
[12] = base formulation III, 2.0 wt% compound, 35 d
[13] = base formulation II, 2.5 wt% compound, 3 d
[14] = base formulation II, 2.5 wt% compound, 7 d
[15] = base formulation II, 2.5 wt% compound, 14 d
[16] = base formulation II, 2.5 wt% compound, 21 d
[17] = base formulation II, 2.5 wt% compound, 28 d
[18] = base formulation II, 2.5 wt% compound, 35 d

In the case of `O=C(O)CC(O)(CC(=O)O)C(=O)O` [B.1, citric acid, reference compound], the “protease activity in the course of time of storage at 37° C.” value (from here on “protease activity in the course”) [1] was 94%, the “protease activity in the course” value [2] was 86% and the “protease activity in the course” value [3] was 76%. For the same molecule, the “protease activity in the course” value [4] was 67%, the “protease activity in the course” value [5] was 62% and the “protease activity in the course” value [6] was 57%. The “protease activity in the course” value [7] was 92%, the “protease activity in the course” value [8] was 84% and the “protease activity in the course” value [9] was 75%. For the same molecule, the “protease activity in the course” value [10] was 65%, the “protease activity in the course” value [11] was 60% and the “protease activity in the course” value [12] was 53%. For the same molecule, the “protease activity in the course” value (base formulation V, 2.0 wt% compound, 3 d) was 93%, the “protease activity in the course” value (base formulation V, 2.0 wt% compound, 7 d) was 86% and the “protease activity in the course” value (base formulation V, 2.0 wt% compound, 14 d) was 75%. For the same molecule, the “protease activity in the course” value (base formulation V, 2.0 wt% compound, 21 d) was 65%, the “protease activity in the course” value (base formulation V, 2.0 wt% compound, 28 d) was 57% and the “protease activity in the course” value (base formulation V, 2.0 wt% compound, 35 d) was 50%.

With `O=C(O)CC(O)(CC(=O)O)C(=O)O` [B.2, citric acid trisodium salt, reference compound] the “protease activity in the course” value (base formulation I, 2.5 wt% compound, 3 d, trisodium salt) was 95%, the “protease activity in the course” value (base formulation I, 2.5 wt% compound, 7 d, trisodium salt) was 84% and the “protease activity in the course” value (base formulation I, 2.5 wt% compound, 14 d, trisodium salt) was 68%. The “protease activity in the course” value (base formulation I, 2.5 wt% compound, 21 d, trisodium salt) was 64%, the “protease activity in the course” value (base formulation I, 2.5 wt% compound, 28 d, trisodium salt) was 59% and the “protease activity in the course” value (base formulation I, 2.5 wt% compound, 35 d, trisodium salt) was 55%. The “protease activity in the course” value [13] was 95%, the “protease activity in the course” value [14] was 82% and the “protease activity in the course” value [15] was 75%. The “protease activity in the course” value [16] was 66%, the “protease activity in the course” value [17] was 63% and the “protease activity in the course” value [18] was 60%. For the same molecule, the “protease activity in the course” value (base formulation III, 2.0 wt% compound, 3 d, trisodium salt) was 93%, the “protease activity in the course” value (base formulation III, 2.0 wt% compound, 7 d, trisodium salt) was 83% and the “protease activity in the course” value (base formulation III, 2.0 wt% compound, 14 d, trisodium salt) was 73%. For the same molecule, the “protease activity in the course” value (base formulation III, 2.0 wt% compound, 21 d, trisodium salt) was 62%, the “protease activity in the course” value (base formulation III, 2.0 wt% compound, 28 d, trisodium salt) was 57% and the “protease activity in the course” value (base formulation III, 2.0 wt% compound, 35 d, trisodium salt) was 50%. For the same molecule, the “protease activity in the course” value (base formulation IV, 2.0 wt% compound, 3 d) was 91%, the “protease activity in the course” value (base formulation IV, 2.0 wt% compound, 7 d) was 86% and the “protease activity in the course” value (base formulation IV, 2.0 wt% compound, 14 d) was 70%. The “protease activity in the course” value (base formulation IV, 2.0 wt% compound, 21 d) was 64%, the “protease activity in the course” value (base formulation IV, 2.0 wt% compound, 28 d) was 58% and the “protease activity in the course” value (base formulation IV, 2.0 wt% compound, 35 d) was 52%.

In the case of `CCOC(=O)C(=O)OCC` [B.3, diethyloxalate, reference compound], the “protease activity in the course” value [1] was 90%, the “protease activity in the course” value [2] was 86% and the “protease activity in the course” value [3] was 70%. For the same molecule, the “protease activity in the course” value [4] was 65%, the “protease activity in the course” value [5] was 62% and the “protease activity in the course” value [6] was 58%. The “protease activity in the course” value [7] was 92%, the “protease activity in the course” value [8] was 85% and the “protease activity in the course” value [9] was 74%. The “protease activity in the course” value [10] was 60%, the “protease activity in the course” value [11] was 55% and the “protease activity in the course” value [12] was 51%.

With `CC(=O)OCC(COC(C)=O)OC(C)=O` [B.4, glyceroltriacetate, reference compound] the “protease activity in the course” value [1] was 91%, the “protease activity in the course” value [2] was 84% and the “protease activity in the course” value [3] was 70%. For the same molecule, the “protease activity in the course” value [4] was 66%, the “protease activity in the course” value [5] was 61% and the “protease activity in the course” value [6] was 56%. For the same molecule, the “protease activity in the course” value [13] was 87%, the “protease activity in the course” value [14] was 80% and the “protease activity in the course” value [15] was 73%. The “protease activity in the course” value [16] was 58%, the “protease activity in the course” value [17] was 57% and the “protease activity in the course” value [18] was 54%.
